Patent publication US20230340440A1, “GENETIC MANIPULATION METHOD IN BACTERIA” (University of Washington, priority 2022, published 2023)
Converted amounts (≈) assume the structure as drawn. Read-outs that look alike come from different tables or passages of the source.

Key:
LacI-Ptrc promoter = assay: inducible LacI-Ptrc-mediated activation of an mRFP reporter gene; type: cell-based, P. putida KT2440; conditions: 1 mM IPTG compared to the no inducer condition
Protocol: (§1) FIGS. 17A-17C show inducible promoters in P. putida (FIG. 17A). Inducible LacI-Ptrc-mediated activation of an mRFP reporter gene in P. putida KT2440 with 0-1 mM IPTG. A 13-fold activation at 1 mM IPTG was observed compared to the no inducer condition. Inducible XylS-Pm-mediated activation of an mRFP reporter gene in P. putida KT2440 with 0-5 mM m-toluic acid (FIG. 17B). […] The XylS-Pm promoter provides a better dynamic range compared to LacI-Ptrc promoter mainly due to its relatively low basal expression. mRFP reporter gene fluorescence distributions measured by flow cytometry (FIG. 17C). […] Values in FIG. 17A represent the mean ± standard deviation calculated from n = 6 independent biological replicates. Values in FIG. 17B represent the mean ± standard deviation calculated from n = 3 independent biological replicates. […]
(§2) Fluorescence measurements of reporter gene expression were carried out either by flow cytometry or plate reader. […] For flow cytometry, overnight cultures were diluted 1:50 in Dulbecco’s phosphate-buffered saline (PBS) and analyzed on a MACSQuant VYB flow cytometer with the MACSQuantify 2.8 software (Miltenyi Biotec) using the methods and instruments settings as described (Dong et al., 2018. Synthetic CRISPR-Cas gene activators for transcriptional reprogramming in bacteria. Nat Commun 9, 2489). […]

[1] = test system: XylS-Pm promoters regulating dCas9 and/or MCP-SoxS; assay: inducible CRISPRa by XylS-Pm on CRISPRa machinery, J3-BBa_J23117-mRFP reporter (pPPC020); type: cell-based, P. putida; conditions: for fold-activation in the presence of inducer: J306 scRNA
Excerpt: FIGS. 18A-18B show inducible CRISPRa by XylS-Pm on CRISPRa machinery. Inducible dCas9/MCP-SoxS constructs were integrated into the P. putida genome with the mini-Tn7 method (FIG. 18A). XylS-Pm promoters were introduced in place of the Sp.pCas9 promoter regulating dCas9 and/or the BBa_J23107 promoter for MCP-SoxS. Strains were transformed with a vector (pPPC020) carrying either an off-target scRNA or a J306 scRNA (FIG. 18B). The fold-activation in the presence of m-toluic acid as an inducer are 9-fold, 5-fold, and 10-fold from PPC08, PPC09, and PPC10, respectively. […] If only MCP-SoxS is under control of the inducible promoter, leaky activation is detectable. In a strain with constitutively expressed CRISPRa machinery that should not be responsive to inducer, high inducer concentrations (5 mM) also led to a modest increase in mRFP expression (1.3-fold). Values represent the mean ± standard deviation calculated from n = 3 independent biological replicates.
Fluorescence measurements of reporter gene expression were carried out either by flow cytometry or plate reader. Single colonies from LB plates were inoculated in 500 µL of EZ-RDM (Teknova) supplemented with the appropriate antibiotics and grown in 96-deep-well plates at 30° C. with shaking overnight 225 rpm. For small-molecule induction, overnight cultures were diluted 100-fold into a new culture with appropriate antibiotics and inducers, then shaken overnight at 30° C., 225 rpm. For flow cytometry, overnight cultures were diluted 1:50 in Dulbecco’s phosphate-buffered saline (PBS) and analyzed on a MACSQuant VYB flow cytometer with the MACSQuantify 2.8 software (Miltenyi Biotec) using the methods and instruments settings as described (Dong et al., 2018. Synthetic CRISPR-Cas gene activators for transcriptional reprogramming in bacteria. Nat Commun 9, 2489). For plate reader measurements, 150 µL of overnight culture were transferred into a flat, clear-bottomed black 96-well plate. OD600 and fluorescence values were measured in a Biotek Synergy HTX plate reader and analyzed using the BioTek Gen5 2.07.17 software. For mRFP1 detection, the excitation wavelength was 540 nm and emission wavelength was 600 nm. […]
To tune expression levels with CRISPRa and CRISPRi, the CRISPR system components were placed under the control of a small-molecule inducible promoter. dCas9 and/or MCP-SoxS were expressed using XylS-Pm, an inducible promoter system from the P. putida mt-2 toluene degradation pathway (Wirth et al., 2019. Accelerated genome engineering of Pseudomonas putida by I-SceI-mediated recombination and CRISPR-Cas9 counterselection. Microb Biotechnol). […] In all three inducible strains assessed, tunable gene activation as a function of inducer concentration was observed (FIG. 18B). […]

XylS-Pm promoter = assay: inducible XylS-Pm-mediated activation of an mRFP reporter gene; type: cell-based, P. putida KT2440; conditions: 1 mM m-toluic acid compared to the no inducer condition
Protocol: as §1, §2

XylS-Pm-dCas9 = assay: tunable CRISPRa/CRISPRi in inducible-dCas9 strain (PPC08), J3-BBa_J23110-mRFP reporter; type: cell-based, P. putida
Excerpt: FIGS. 5A-5B show CRISPRa with endogenous promoters and inducible CRISPRa/CRISPRi in P. putida. The putative promoter sequences between two open reading frames (ORFs) with 60 bp flanking sequences were incorporated into the mRFP reporter (FIG. 5A). scRNAs were introduced for all potentially activable target sites corresponding to the effective distances as tested in FIGS. 2B & 2C. Precise distances from the target site to the TSS are listed in Table 5. hAAVS1 was used as an off-target scRNA for all ten promoters. […] The inducible-dCas9 strain yielded 3-fold activation with CRISPRa or 7-fold repression with CRISPRi at 1 mM m-toluic acid compared to the no-inducer control. Fold-changes compared to the off-target control were 4-fold and 5-fold, respectively. […] Values represent the mean ± standard deviation calculated from n = 3 independent biological replicates.
Fluorescence measurements of reporter gene expression were carried out either by flow cytometry or plate reader. Single colonies from LB plates were inoculated in 500 µL of EZ-RDM (Teknova) supplemented with the appropriate antibiotics and grown in 96-deep-well plates at 30° C. with shaking overnight 225 rpm. For small-molecule induction, overnight cultures were diluted 100-fold into a new culture with appropriate antibiotics and inducers, then shaken overnight at 30° C., 225 rpm. For flow cytometry, overnight cultures were diluted 1:50 in Dulbecco’s phosphate-buffered saline (PBS) and analyzed on a MACSQuant VYB flow cytometer with the MACSQuantify 2.8 software (Miltenyi Biotec) using the methods and instruments settings as described (Dong et al., 2018. Synthetic CRISPR-Cas gene activators for transcriptional reprogramming in bacteria. Nat Commun 9, 2489). For plate reader measurements, 150 µL of overnight culture were transferred into a flat, clear-bottomed black 96-well plate. OD600 and fluorescence values were measured in a Biotek Synergy HTX plate reader and analyzed using the BioTek Gen5 2.07.17 software. For mRFP1 detection, the excitation wavelength was 540 nm and emission wavelength was 600 nm. For sfGFP detection, the excitation wavelength was 485 nm and the emission wavelength was 528 nm. Data were plotted using Prism (GraphPad).
A reporter with either an activating scRNA or a repressing sgRNA was delivered to the inducible dCas9 strain (PPC08) and 3-fold activation with CRISPRa or 7-fold repression with CRISPRi at 1 mM m-toluic acid (FIG. 5B) was observed. […] By targeting CRISPRi and CRISPRa to the same locus, we may be able to obtain lower basal expression and higher induced expression. […]

P. putida cultures = assay: consumption of extracellular p-ACA by growing P. putida cultures; conditions: stability of accumulation in culture supernatant
p-ACA solubility limit = type: physicochemical; conditions: aqueous buffer; extracellular, culture media
E. coli = assay: growth experiment with extracellular p-ACA, E. coli; type: cell-based
Excerpt: (§3) FIGS. 31A-31F show CRISPRa efficiency can be tuned by expression level of scRNA. The optimized expression level of scRNA from pBBR1-GmR is under J23110 promoter. Higher level (BBa_J23119) or lower level (BBa_J23106) led to decrease in CRISPRa effects (FIG. 31A). CRISPRa efficiency can be tuned by scRNA composition (FIG. 31B). Truncating the spacer sequence from 20 nucleotides to 8 nucleotides led to titratable expression level by CRISPRa. Desired product p-ACA is toxic to E. coli but not P. putida (FIG. 31C). In this kinetic growth experiment, extracellular p-ACA is supplied in the media at the indicated concentrations, and cultures are grown in a plate reader with periodic density measurements. E. coli growth is severely limited above 20 mM p-ACA (dash-dotted line). Early timepoints are sometimes obscured by p-ACA precipitate, which eventually resolubilizes. […] Error bars represent standard deviation of n=3 biological replicates. […] An example of CRISPRa with 3 orthogonal scRNAs activating 3 fluorescent reporters (FIG. 31E). Multiple scRNAs construction strategy was based on Golden-Gate Assembly (FIG. 31F).
(§4) With further chemical modification or bioconversions, pACA can be converted into p-aminostyrene (pAS) which is a precursor of derivatized polystyrene, containing a functional group for further modification or functionalization with other polymers. […] Assuming that high concentration of pACA could be deleterious to the host, a growth experiment using E. coli, the standard chassis, and P. putida, known for resistance to aromatic compounds was performed. It is obvious that E. coli cannot tolerate high concentrations of pACA while P. putida growth is less affected. Thus, the solution to microbial production of pACA might be achievable with P. putida as an alternative chassis.
As originally implemented in E. coli, the p-AF production pathway consisted of the P. fluorescens papABC operon78 under tet-inducible control, along with a feedback-resistant E. coli aroG74 and aroL in their own operon, which is also tet-inducible. […] Toxic amounts of extracellular p-ACA, the result of a spike into the media, are shown in FIG. 31B, with 50% reduction of E. coli growth occurring above 10 mM extracellular.

P. putida = assay: growth experiment with extracellular p-ACA, P. putida; type: cell-based
Excerpt: as §3, §4
In contrast to E. coli, p-ACA has little effect on P. putida growth, even up to 20 mM extracellular (close to its solubility limit). Therefore, the inventors chose to port the existing pAF pathway into P. putida to extend it to more valuable downstream aromatic products.

[2] = 1 mM m-toluic acid compared to the no-inducer control
[3] = 1 mM m-toluic acid compared to the off-target control

## CC(C)S[C@@H]1O[C@H](CO)[C@H](O)[C@H](O)[C@H]1O [IPTG]
LacI-Ptrc promoter
  activation of mRFP reporter (LacI-Ptrc): 13 fold

## Cc1cccc(C(=O)O)c1 [m-toluic acid]
[1]; 5 mM inducer, strain with constitutively expressed CRISPRa machinery
  increase in mRFP expression: 1.3 fold
[1]; strain PPC08 (inducible dCas9)
  fold-activation in the presence of inducer: 9 fold
[1]; strain PPC09 (inducible MCP-SoxS)
  fold-activation in the presence of inducer: 5 fold
[1]; strain PPC10 (dCas9 and MCP-SoxS inducible)
  fold-activation in the presence of inducer: 10 fold
XylS-Pm promoter
  activation of mRFP reporter (XylS-Pm): > 300 fold
XylS-Pm-dCas9; [2]
  activation with CRISPRa: 3 fold
  repression with CRISPRi: 7 fold
XylS-Pm-dCas9; [3]
  fold-change with CRISPRa: 4 fold
  fold-change with CRISPRi: 5 fold

## Nc1ccc(C=CC(=O)O)cc1 [p-ACA, p-aminocinnamic acid]
P. putida cultures
  consumption of extracellular p-ACA by growing P. putida cultures: lack of consumption
p-ACA solubility limit
  solubility: ~20 mM (≈ 3260 µg/mL)
E. coli; Escherichia coli, read-out: 50% reduction of E. coli growth
  IC50: > 10 mM
E. coli; kinetic growth experiment, extracellular p-ACA in the media, plate reader (FIG. 31C)
  E. coli growth severely limited above: above 20 mM
E. coli; production/accumulation in E. coli
  toxic effects in E. coli host: toxic effects
P. putida; follow-up experiments
  toxicity in P. putida strain with the putative catabolic pathway knocked out: lack of p-ACA toxicity
P. putida; kinetic growth experiment, extracellular p-ACA in the media (FIG. 31C)
  P. putida growth: relatively unaffected
P. putida; up to 20 mM extracellular
  effect on P. putida growth: little effect

## Nc1ccc(C[C@H](N)C(=O)O)cc1 [p-AF, p-aminophenylalanine]
E. coli
  toxic effects in E. coli host: can safely accumulate
